Reference: patent publication US12673975B2, “Cyclic peptide, cell scaffold material, cell separating material, and medium” (FUJIFILM Corporation, priority 2019, dated 2026)
pKd: −log10 of the molar value. Starred links: 1 amine or outer side, 2 acyl side, 3 side chain; linkers in the order of their positions; H or OH if unused. Positions of bridges follow the written chain, without caps; N, C: chain ends. Non-standard residues stand in square brackets, D forms with d. Residues, ends and D or L forms follow the SMILES beside them. Pen = CC(C)(S)[C@H](N)C(=O)O; hCys = N[C@@H](CCS)C(=O)O; Orn = NCCC[C@H](N)C(=O)O; Dab = NCC[C@H](N)C(=O)O; X1 = O=C(C[*:2])[*:1]; X2 = O=C(C[*:1])[*:2]

How the values were obtained:
human integrin αvβ5 = human integrin αvβ5 (Homo sapiens, UniProt P06756+P18084); experiment: Evaluation of integrin binding property (surface plasmon resonance, Biacore 3000, immobilized cyclic peptide); details: surface plasmon resonance, immobilized cyclic peptide, human integrin αvβ5; read-out: Binding activity (integrin binding property, dissociation constant rank)
human integrin αvβ5, sequence (P06756 31-1048): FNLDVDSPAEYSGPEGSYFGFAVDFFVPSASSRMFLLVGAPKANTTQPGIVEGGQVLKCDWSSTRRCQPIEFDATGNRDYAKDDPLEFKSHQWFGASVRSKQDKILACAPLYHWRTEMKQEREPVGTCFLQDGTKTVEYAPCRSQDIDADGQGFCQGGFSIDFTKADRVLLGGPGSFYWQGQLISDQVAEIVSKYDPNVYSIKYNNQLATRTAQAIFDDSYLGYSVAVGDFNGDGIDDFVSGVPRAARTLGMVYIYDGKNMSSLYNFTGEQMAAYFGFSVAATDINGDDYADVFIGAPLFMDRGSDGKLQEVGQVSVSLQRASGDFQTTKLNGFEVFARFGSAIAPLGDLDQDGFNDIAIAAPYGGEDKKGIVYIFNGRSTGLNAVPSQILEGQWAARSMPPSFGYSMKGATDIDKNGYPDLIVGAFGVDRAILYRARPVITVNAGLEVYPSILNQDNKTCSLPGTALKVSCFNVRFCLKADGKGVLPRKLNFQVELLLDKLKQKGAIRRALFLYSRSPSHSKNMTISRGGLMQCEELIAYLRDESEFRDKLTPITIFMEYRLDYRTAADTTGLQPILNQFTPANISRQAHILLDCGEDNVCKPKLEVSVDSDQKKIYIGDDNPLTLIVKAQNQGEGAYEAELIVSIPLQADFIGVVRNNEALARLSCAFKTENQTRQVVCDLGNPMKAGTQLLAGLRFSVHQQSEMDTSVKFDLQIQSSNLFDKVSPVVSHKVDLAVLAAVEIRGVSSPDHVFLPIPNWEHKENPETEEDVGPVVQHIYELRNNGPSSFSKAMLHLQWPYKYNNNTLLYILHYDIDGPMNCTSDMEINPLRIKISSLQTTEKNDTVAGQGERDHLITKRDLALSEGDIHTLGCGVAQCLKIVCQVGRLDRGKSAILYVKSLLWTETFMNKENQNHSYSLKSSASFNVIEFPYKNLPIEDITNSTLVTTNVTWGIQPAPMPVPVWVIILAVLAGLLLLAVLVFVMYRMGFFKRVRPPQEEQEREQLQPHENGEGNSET
human integrin αvβ5, sequence (P18084 24-799): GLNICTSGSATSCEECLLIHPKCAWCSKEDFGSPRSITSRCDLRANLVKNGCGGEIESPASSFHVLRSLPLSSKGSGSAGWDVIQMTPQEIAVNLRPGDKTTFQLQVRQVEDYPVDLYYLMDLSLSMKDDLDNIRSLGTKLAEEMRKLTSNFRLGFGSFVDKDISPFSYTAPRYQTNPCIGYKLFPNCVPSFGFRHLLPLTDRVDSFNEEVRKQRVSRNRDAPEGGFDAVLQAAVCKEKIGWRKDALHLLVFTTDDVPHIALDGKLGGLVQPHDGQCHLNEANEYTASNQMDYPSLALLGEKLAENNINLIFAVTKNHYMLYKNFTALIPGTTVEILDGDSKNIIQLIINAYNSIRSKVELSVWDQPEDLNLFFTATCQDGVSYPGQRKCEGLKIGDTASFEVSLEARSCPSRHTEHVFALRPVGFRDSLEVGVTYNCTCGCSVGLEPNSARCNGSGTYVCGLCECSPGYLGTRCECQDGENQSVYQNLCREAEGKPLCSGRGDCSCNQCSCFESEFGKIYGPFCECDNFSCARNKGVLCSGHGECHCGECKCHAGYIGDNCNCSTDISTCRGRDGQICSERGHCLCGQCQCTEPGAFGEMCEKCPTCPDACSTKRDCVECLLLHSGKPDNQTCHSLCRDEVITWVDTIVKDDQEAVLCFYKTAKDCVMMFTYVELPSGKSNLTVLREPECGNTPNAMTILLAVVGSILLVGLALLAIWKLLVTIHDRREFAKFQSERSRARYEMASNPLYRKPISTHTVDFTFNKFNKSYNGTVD
Procedure, shortened: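 Human αvβ5 (30-1,000 nM) flowed for 10 min at 25 °C over immobilized cyclic peptide in 20 mM HEPES, 150 mM NaCl, 5 mM MgCl2, pH 7.4, followed by 30 min running buffer and 0.5 M EDTA regeneration. Dissociation constant from peptide minus unimmobilized channel, scored into standard grades.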

[1] = Evaluation of molecule stability (alkali treatment, residual rate by LC/MS); format: physicochemical; details: alkali treatment, residual rate by LC/MS
Procedure, shortened: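 Stability read as percent of summed LC/MS peak area remaining versus untreated peptide (C18, 45 °C, 10 mM ammonium formate pH 3, ESI positive/negative). Treatment: 500 μM peptide in water plus an equivalent of 1 M NaOH, 15 °C for 3 hours.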

Compound	pKd (human integrin αvβ5)	Stability (molecule stability, residual rate of the cyclic peptide rank) [1]
CC(C)[C@@H]1NC(=O)[C@@H](NC(=O)[C@H](C)NC(=O)[C@H](CCCCN)NC(=O)[C@H](CCCCN)NC(=O)[C@@H](N)CCCCN)CCNC(=O)CSC(C)(C)[C@@H](C(=O)N[C@@H](C)C(=O)O)NC(=O)[C@H](C)NC(=O)[C@H](Cc2ccccc2)NC(=O)[C@H]([C@@H](C)O)NC(=O)[C@H](CC(=O)O)NC(=O)CNC(=O)[C@H](CCCNC(=N)N)NC(=O)[C@@H]2CCCN2C1=O [Cyclic peptide 136, KKKA(Dab(acetyl))VPRGDTFA-(Pen)-A] (H-KKKA[Dab]VPRGDTFA[Pen]A-OH; linker 5-14 via X1)	> 7.30	A (The residual rate of the cyclic peptide is 70% or more.)
CC[C@H](C)[C@@H]1NC(=O)[C@@H](NC(=O)[C@H](C)NC(=O)[C@H](CCCCN)NC(=O)[C@H](CCCCN)NC(=O)[C@@H](N)CCCCN)CCNC(=O)CSC(C)(C)[C@@H](C(=O)N[C@@H](C)C(=O)O)NC(=O)[C@H](C)NC(=O)[C@H](Cc2ccccc2)NC(=O)[C@H](CO)NC(=O)[C@H](CC(=O)O)NC(=O)CNC(=O)[C@H](CCCNC(=N)N)NC(=O)[C@@H]2CCCN2C1=O [Cyclic peptide 137, KKKA(Dab(acetyl))IPRGDSFA-(Pen)-A] (H-KKKA[Dab]IPRGDSFA[Pen]A-OH; linker 5-14 via X1)	7.00 to 7.30	A (The residual rate of the cyclic peptide is 70% or more.)
CC[C@H](C)[C@@H]1NC(=O)[C@@H](NC(=O)CNC(=O)[C@H](CCCCN)NC(=O)[C@H](CCCCN)NC(=O)[C@@H](N)CCCCN)CCNC(=O)CSC[C@@H](C(=O)N[C@@H](C)C(=O)O)NC(=O)[C@H](CCCNC(=N)N)NC(=O)[C@H](Cc2ccccc2)NC(=O)[C@H]([C@@H](C)O)NC(=O)[C@H](CC(=O)O)NC(=O)CNC(=O)[C@H](CCCNC(=N)N)NC(=O)[C@@H]2CCCN2C1=O [Cyclic peptide 138, KKKG(Dab(acetyl))IPRGDTFR(C)A] (H-KKKG[Dab]IPRGDTFRCA-OH; linker 5-14 via X1)	7.00 to 7.30	C (The residual rate of the cyclic peptide is 30% or more and less than 50%.)
CC[C@H](C)[C@@H]1NC(=O)[C@@H](NC(=O)CNC(=O)[C@H](CCCCN)NC(=O)[C@H](CCCCN)NC(=O)[C@@H](N)CCCCN)CCCNC(=O)CSC[C@@H](C(=O)N[C@@H](C)C(=O)O)NC(=O)[C@H](CCCNC(=N)N)NC(=O)[C@H](Cc2ccccc2)NC(=O)[C@H]([C@@H](C)O)NC(=O)[C@H](CC(=O)O)NC(=O)CNC(=O)[C@H](CCCNC(=N)N)NC(=O)[C@@H]2CCCN2C1=O [Cyclic peptide 139, KKKG(Orn(acetyl))IPRGDTFR(C)A] (H-KKKG[Orn]IPRGDTFRCA-OH; linker 5-14 via X1)	> 7.30	C (The residual rate of the cyclic peptide is 30% or more and less than 50%.)
CC[C@H](C)[C@@H]1NC(=O)[C@@H](NC(=O)CNC(=O)[C@H](CCCCN)NC(=O)[C@H](CCCCN)NC(=O)[C@@H](N)CCCCN)CCCCNC(=O)CSC[C@@H](C(=O)N[C@@H](C)C(=O)O)NC(=O)[C@H](CCCNC(=N)N)NC(=O)[C@H](Cc2ccccc2)NC(=O)[C@H]([C@@H](C)O)NC(=O)[C@H](CC(=O)O)NC(=O)CNC(=O)[C@H](CCCNC(=N)N)NC(=O)[C@@H]2CCCN2C1=O [Cyclic peptide 140, KKKG(Lys(acetyl))IPRGDTFR(C)A] (H-KKKGKIPRGDTFRCA-OH; linker 5-14 via X1)	7.00 to 7.30	C (The residual rate of the cyclic peptide is 30% or more and less than 50%.)
CC(C)[C@@H]1NC(=O)[C@@H](NC(=O)[C@H](CCCCN)NC(=O)[C@H](CCCCN)NC(=O)[C@@H](N)CCCCN)CCNC(=O)CSC[C@@H](C(=O)O)NC(=O)[C@H](C)NC(=O)[C@H](Cc2ccccc2)NC(=O)[C@H]([C@@H](C)O)NC(=O)[C@H](CC(=O)O)NC(=O)CNC(=O)[C@H](CCCNC(=N)N)NC(=O)[C@@H]2CCCN2C1=O [Cyclic peptide 141, KKK(Dab(acetyl))VPRGDTFA(C)] (H-KKK[Dab]VPRGDTFAC-OH; linker 4-13 via X1)	> 7.30	C (The residual rate of the cyclic peptide is 30% or more and less than 50%.)
CC(C)[C@@H]1NC(=O)[C@@H](NC(=O)[C@H](C)NC(=O)[C@H](CCCCN)NC(=O)[C@H](CCCCN)NC(=O)[C@@H](N)CCCCN)CCNC(=O)CSC[C@@H](C(=O)N[C@@H](C)C(=O)O)NC(=O)[C@H](C)NC(=O)[C@H](Cc2ccccc2)NC(=O)[C@H]([C@@H](C)O)NC(=O)[C@H](CC(=O)O)NC(=O)CNC(=O)[C@H](CCCNC(=N)N)NC(=O)[C@@H]2CCCN2C1=O [Cyclic peptide 142, KKKA(Dab(acetyl))VPRGDTFA(C)A] (H-KKKA[Dab]VPRGDTFACA-OH; linker 5-14 via X1)	> 7.30	C (The residual rate of the cyclic peptide is 30% or more and less than 50%.)
CC(C)[C@@H]1NC(=O)[C@@H](NC(=O)[C@H](CCCCN)NC(=O)[C@H](CCCCN)NC(=O)[C@@H](N)CCCCN)CCNC(=O)CSC[C@@H](C(=O)O)NC(=O)[C@H](Cc2ccccc2)NC(=O)[C@H](CC(N)=O)NC(=O)[C@H](CC(=O)O)NC(=O)CNC(=O)[C@H](CCCNC(=N)N)NC(=O)[C@@H]2CCCN2C1=O [Cyclic peptide 143, KKK(Dab(acetyl))VPRGDNF(C)] (H-KKK[Dab]VPRGDNFC-OH; linker 4-12 via X1)	> 7.30	C (The residual rate of the cyclic peptide is 30% or more and less than 50%.)
C[C@@H]1NC(=O)[C@H](Cc2ccccc2)NC(=O)[C@H]([C@@H](C)O)NC(=O)[C@H](CC(=O)O)NC(=O)CNC(=O)[C@H](CCCNC(=N)N)NC(=O)[C@@H]2CCCN2C(=O)[C@H](CC(=O)O)NC(=O)[C@@H](NC(=O)[C@H](CCCCN)NC(=O)[C@H](CCCCN)NC(=O)[C@@H](N)CCCCN)CCSCC(=O)NCC[C@@H](C(=O)O)NC1=O [Cyclic peptide 144, KKK-(Hcy)-DPRGDTFA(Dab(acetyl))] (H-KKK[hCys]DPRGDTFA[Dab]-OH; linker 4-13 via X2)	> 7.30	A (The residual rate of the cyclic peptide is 70% or more.)
C[C@@H]1NC(=O)[C@H](Cc2ccccc2)NC(=O)[C@H]([C@@H](C)O)NC(=O)[C@H](CC(=O)O)NC(=O)CNC(=O)[C@H](CCCNC(=N)N)NC(=O)[C@@H]2CCCN2C(=O)[C@H](CCC(=O)O)NC(=O)[C@@H](NC(=O)[C@H](CCCCN)NC(=O)[C@H](CCCCN)NC(=O)[C@@H](N)CCCCN)CCSCC(=O)NCC[C@@H](C(=O)O)NC1=O [Cyclic peptide 145, KKK-(Hcy)-EPRGDTFA(Dab(acetyl))] (H-KKK[hCys]EPRGDTFA[Dab]-OH; linker 4-13 via X2)	> 7.30	A (The residual rate of the cyclic peptide is 70% or more.)
CC(C)C[C@@H]1NC(=O)[C@@H](NC(=O)[C@H](CCCCN)NC(=O)[C@H](CCCCN)NC(=O)[C@@H](N)CCCCN)CCSCC(=O)NCC[C@@H](C(=O)O)NC(=O)[C@H](C)NC(=O)[C@H](Cc2ccccc2)NC(=O)[C@H]([C@@H](C)O)NC(=O)[C@H](CC(=O)O)NC(=O)CNC(=O)[C@H](CCCNC(=N)N)NC(=O)[C@@H]2CCCN2C1=O [Cyclic peptide 146, KKK-(Hcy)-LPRGDTFA(Dab(acetyl))] (H-KKK[hCys]LPRGDTFA[Dab]-OH; linker 4-13 via X2)	> 7.30	A (The residual rate of the cyclic peptide is 70% or more.)
